This test has as its target Aβ42 (β-amyloid peptide) (Homo sapiens, UniProt P05067). The test can be described thus: fluorescence polarization of the intrinsically fluorescent probe. In kind it is binding. On the technique in general: In fluorescence polarisation assays a small probe gives low polarisation when free and higher when bound to something large.

One may read the Kd as a measure of binding affinity in units of concentration. A high value points to weaker binding.

Chain of Aβ42 (β-amyloid peptide) (P05067 672-713 limits assumed): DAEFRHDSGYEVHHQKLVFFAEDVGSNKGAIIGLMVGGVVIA

For the molecule `COc1cc(C=CC(=O)C(Cc2cn(CCCCCCNC(=O)CCNC(=O)CCNC(=O)COC3CCC4(C)C(=CCC5C4CCC4(C)C(C(C)CCCC(C)C)CCC54)C3)nn2)C(=O)C=Cc2ccc(O)c(OC)c2)ccc1O` (stereo not shown) [compound 7, BMAOI 14], binding was characterised by a dissociation constant (Kd) of 830 nM.

These data come from article PMC3367438 (2011).
